Test results from patent US9333188B2, “Composition and method for improving survival of bee colonies” (Science in Water B.V., priority 2012, dated 2016).

Tested on: bees
Test: Beekeeper field trial: winter survival of bee hives after feeding
Format: in vivo
Conditions: populations given only iron(II) fumarate
Procedure: In a trial, a number or beekeepers (16) used a solution of vinasse containing dissolved iron(II) fumarate with the goal of reducing instances of winter mortality and CCD. This solution was mixed with 100-200 ml of sugar syrup. The solution thus obtained was administered to bees with their feed. The quantities and results were as follows: A total of approximately 1,000 mg of iron(II) fumarate, or 333 mg Fe (i.e. 5.8 millimoles iron(II)) was administered per 5 kg of bees. This quantity was administered in small portions. The initial moments of the series administrations ranged from 5 August 2011 to 15 September 2011. The administration frequencies ranged from one time per week to one time per 3 days. If administration was started late in the season, administration was one time per 3 days to ensure that a consistent total amount of iron(II) fumarate was administered across the test populations. […] In a control populations given only pure vinasse the queens were dead within 14 days; these populations were then not viable and after the death of the queen, remaining bees in the population were merged with another population. In one case, the total amount of iron(II) fumarate and vinasse was added to 15 kg of sugar syrup. This emulsion was administered as a winter sugar, until the mixture was consumed. […]

Question: For `O=C([O-])/C=C/C(=O)[O-].[Fe+2]` [iron(II) fumarate], which “winter survival of control populations” value is on record?
Answer: Its value is “survived the winter, but in a very weak state”.
